Laboratory results reported in US8735398B2 (Bristol-Myers Squibb Company, priority 2009, dated 2014).

tested on: HCV 1b genotype; assay: HCV replicon assay (HCV-neo replicon cells, wild-type); type: cell-based, Hepatitis C virus; conditions: HCV 1b genotype replicon; class symbol; read-out: EC50 Range against HCV 1b
Procedure, shortened: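 Inhibition was tested in replicon-bearing cells, both wild-type HCV-neo and lines with NS5A resistance substitutions, using the O'Boyle et al. 2005 replicon method or luciferase-reporter formats.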

| SMILES | EC50 [nM] |
| --- | --- |
| O=C(Nc1ccc(-c2cnc(-c3ccc(NC(=O)[C@@H]4C[C@@H]5C[C@@H]5N4C(=O)[C@H](O)c4ccccc4)cc3)o2)cc1)[C@@H]1C[C@@H]2C[C@@H]2N1C(=O)[C@H](O)c1ccccc1 [CB-6, (1S,3S,5S,1′S,3′S,5′S)-N,N′-(1,3-oxazole-2,5-diyldi-4,1-phenylene)bis(2-((2R)-2-hydroxy-2-phenylacetyl)-2-azabicyclo[3.1.0]hexane-3-carboxamide)] | < 4.57 |
| CC(C)(C)OC(=O)N1CCCC1C(=O)N1CCCC1C(=O)Nc1ccc(-c2cnc(-c3ccc(NC(=O)C4CCCN4C(=O)C4CCCN4C(=O)OC(C)(C)C)cc3)o2)cc1 [Example D-28, di-tert-butyl (2R,2′R)-2,2′-(1,3-oxazole-2,5-diylbis(4,1-phenylenecarbamoyl(2S)-2,1-pyrrolidinediylcarbonyl))di(1-pyrrolidinecarboxylate)] | 1000 to 10000 |
| CN(C)C(C(=O)N1CCC[C@H]1C(=O)Nc1ccc(-c2cnc(-c3ccc(NC(=O)[C@@H]4CCCN4C(=O)C(c4ccc(F)cc4F)N(C)C)cc3)o2)cc1)c1ccc(F)cc1F (single isomer, unassigned) [Example D-7] | 4.57 to 99 |

same assay, conditions: HCV 1b genotype replicon; class symbols; read-out: EC50 Range against HCV 1b

| SMILES | EC50 [nM] |
| --- | --- |
| CC(C)(C)O[C@@H]1C[C@@H](C(=O)Nc2ccc(-c3cnc(-c4ccc(NC(=O)[C@@H]5C[C@@H](OC(C)(C)C)CN5C(=O)Cc5ccccn5)cc4)o3)cc2)N(C(=O)Cc2ccccn2)C1 [XY-75, (2S,4R,2′S,4′R)-N,N′-(1,3-oxazole-2,5-diyldi-4,1-phenylene)bis(4-tert-butoxy-1-(2-pyridinylacetyl)-2-pyrrolidinecarboxamide)] | 4.57 to 99 |

same assay, conditions: Hepatitis C virus, HCV 1b genotype replicon; class symbol; read-out: EC50 Range against HCV 1b

| SMILES | EC50 [nM] |
| --- | --- |
| CC(=O)N1CCC[C@H]1C(=O)Nc1ccc(-c2cnc(-c3ccc(NC(=O)C4CC(=O)N(CCc5cccs5)C4)cc3)o2)cc1 (stereo partly drawn) [MS-5, (2S)-1-acetyl-N-[4-[2-[4-[[[5-oxo-1-[2-(2-thienyl)ethyl]-3-pyrrolidinyl]carbonyl]amino]phenyl]-5-oxazolyl]phenyl]-2-pyrrolidinecarboxamide] | 100 to 999 |
| O=C(Nc1ccc(-c2nc[nH]c2-c2ccc(NC(=O)[C@@H]3CCCN3C(=O)OCc3ccccc3)cc2)cc1)[C@@H]1CCCN1C(=O)OCc1ccccc1 [OL-7, (2S,2′S)-2,2′-[1H-imidazole-4,5-diylbis(4,1-phenyleneiminocarbonyl)]bis-1-pyrrolidinecarboxylic acid, bis(phenylmethyl) ester] | 4.57 to 99 |
| C[C@H](NC(=O)c1cc(Cl)cc2ccccc12)C(=O)Nc1ccc(-c2cc(-c3ccc(NC(=O)[C@H](C)NC(=O)c4cc(Cl)cc5ccccc45)cc3)[nH]n2)cc1 [OL-47, N,N′-(1H-pyrazole-3,5-diylbis(4,1-phenyleneimino((2S)-1-oxo-1,2-propanediyl)))bis(3-chloro-1-naphthamide)] | 4.57 to 99 |
| CC(=O)N1CCC[C@H]1C(=O)Nc1ccc(-c2nc(-c3ccc(NC(=O)[C@@H]4C=CCN4C(=O)Cc4ccccc4)cc3)cs2)cc1 [Example D-49, (2S)-N-[4-[2-[4-[[[(2S)-1-acetyl-2-pyrrolidinyl]carbonyl]amino]phenyl]-4-thiazolyl]phenyl]-2,5-dihydro-1-(phenylacetyl)-1H-pyrrole-2-carboxamide] | 1000 to 10000 |
| Cn1nc(-c2ccc(NC(=O)[C@@H]3CCCN3C(=O)OCc3ccccc3)cc2)cc1-c1ccc(NC(=O)[C@@H]2CCCN2C(=O)OCc2ccccc2)cc1 [FY-3, dibenzyl (2S,2′S)-2,2′-((1-methyl-1H-pyrazole-3,5-diyl)bis(4,1-phenylenecarbamoyl))di(1-pyrrolidinecarboxylate)] | 100 to 999 |
| CO[C@H](C(=O)N1CCC[C@H]1C(=O)Nc1ccc(-c2cc(-c3ccc(NC(=O)[C@@H]4CCCN4C(=O)[C@@H](OC)c4ccccc4)cc3)[nH]n2)cc1)c1ccccc1 [JG-38, (2S,2′S)-N,N′-(1H-pyrazole-3,5-diyldi-4,1-phenylene)bis(1-((2S)-2-methoxy-2-phenylacetyl)-2-pyrrolidinecarboxamide)] | < 4.57 |
| COc1cccc2c(C(=O)N3CCC[C@H]3C(=O)Nc3ccc(-c4ccc(-c5ccc(NC(=O)[C@@H]6CCCN6C(=O)[C@H](O)c6ccccc6)cc5)o4)cc3)nc(Cl)cc12 [JG-64, (2S)-1-((3-chloro-5-methoxy-1-isoquinolinyl)carbonyl)-N-(4-(5-(4-((((2S)-1-((2R)-2-hydroxy-2-phenylacetyl)-2-pyrrolidinyl)carbonyl)amino)phenyl)-2-furyl)phenyl)-2-pyrrolidinecarboxamide] | 4.57 to 99 |
| O=C(Nc1ccc(-c2cc(-c3ccc(NC(=O)[C@@H]4CCCN4C(=O)[C@H](O)c4ccccc4Cl)cc3)[nH]n2)cc1)[C@@H]1CCCN1C(=O)[C@H](O)c1ccccc1Cl [JG-36, (2S,2′S)-N,N′-(1H-pyrazole-3,5-diyldi-4,1-phenylene)bis(1-((2R)-2-(2-chlorophenyl)-2-hydroxyacetyl)-2-pyrrolidinecarboxamide)] | < 4.57 |
| CC(=O)N1CC=C[C@H]1C(=O)Nc1ccc(-c2cc(-c3ccc(NC(=O)[C@@H]4C=CCN4C(C)=O)cc3)[nH]n2)cc1 [OL-30, (2S,2′S)-N,N′-(1H-pyrazole-3,5-diyldi-4,1-phenylene)bis(1-acetyl-2,5-dihydro-1H-pyrrole-2-carboxamide)] | 1000 to 10000 |
| CC(=O)N1CCC[C@H]1C(=O)Nc1ccc(-c2cc(-c3ccc(NC(=O)[C@@H]4CCCN4C(C)=O)cc3)n(C)n2)cc1 [FY-2, (2S,2′S)-N,N′-((1-methyl-1H-pyrazole-3,5-diyl)di-4,1-phenylene)bis(1-acetyl-2-pyrrolidinecarboxamide)] | 1000 to 10000 |
| CCOc1ccccc1C(=O)N1CCC[C@H]1C(=O)Nc1ccc(-c2nnc(-c3ccc(NC(=O)[C@@H]4CCCN4C(=O)c4ccccc4OCC)cc3)o2)cc1 [RK-8, (2S,2′S)-N,N′-(1,3,4-oxadiazole-2,5-diyldi-4,1-phenylene)bis(1-(2-ethoxybenzoyl)-2-pyrrolidinecarboxamide)] | 1000 to 10000 |
| O=C(Nc1ccc(-c2cnc(-c3ccc(NC(=O)[C@@H]4CCCN4C(=O)[C@@H]4CCCN4)cc3)o2)cc1)[C@@H]1CCCN1C(=O)[C@@H]1CCCN1 [Example D-34, (2S,2′S)-N,N′-(1,3-oxazole-2,5-diyldi-4,1-phenylene)bis(1-((2S)-2-pyrrolidinylcarbonyl)-2-pyrrolidinecarboxamide)] | 1000 to 10000 |
| O=C(Nc1ccc(-c2nnc(-c3ccc(NC(=O)C4CCCN4C(=O)Cc4ccccc4)cc3)o2)cc1)C1CCCN1C(=O)Cc1ccccc1 (stereo not shown) [RK-3, N,N′-(1,3,4-oxadiazole-2,5-diyldi-4,1-phenylene)bis(1-(phenylacetyl)-2-pyrrolidinecarboxamide)] | 100 to 999 |
| CC(=O)N1CCC[C@H]1C(=O)Nc1ccc(-c2nc(C)sc2-c2ccc(NC(=O)[C@@H]3CCCN3C(C)=O)cc2)cc1 [Example D-43, (2S,2′S)-N,N′-((2-methyl-1,3-thiazole-4,5-diyl)di-4,1-phenylene)bis(1-acetyl-2-pyrrolidinecarboxamide)] | 100 to 999 |
| O=C(Nc1ccc(-c2cnc(-c3ccc(NC(=O)[C@@H]4CCCN4C(=O)C4CCCCN4Cc4ccccc4)cc3)o2)cc1)[C@@H]1CCCN1C(=O)C1CCCCN1Cc1ccccc1 (stereo partly drawn) [Example D-21, (2S,2′S)-N,N′-(1,3-oxazole-2,5-diyldi-4,1-phenylene)bis(1-((1-benzyl-2-piperidinyl)carbonyl)-2-pyrrolidinecarboxamide)] | 1000 to 10000 |
| CO[C@H](C(=O)N1CCC[C@H]1C(=O)Nc1ccc(-c2cnc(-c3ccc(NC(=O)[C@@H]4CCCN4C(=O)[C@@H](OC)c4ccccc4)cc3)o2)cc1)c1ccccc1 [JG-19, (2S,2′S)-N,N′-(1,3-oxazole-2,5-diyldi-4,1-phenylene)bis(1-((2S)-2-methoxy-2-phenylacetyl)-2-pyrrolidinecarboxamide)] | 4.57 to 99 |

same assay, conditions: Hepatitis C virus, HCV 1b genotype replicon; class symbols; read-out: EC50 Range against HCV 1b

| SMILES | EC50 [nM] |
| --- | --- |
| O=C(Nc1ccc(-c2cnc(-c3ccc(NC(=O)[C@@H]4CCCN4C(=O)c4cc(F)cc(F)c4)cc3)o2)cc1)[C@@H]1CCCN1C(=O)c1cc(F)cc(F)c1 [XY-7, (2S,2′S)-N,N′-(1,3-oxazole-2,5-diyldi-4,1-phenylene)bis(1-(3,5-difluorobenzoyl)-2-pyrrolidinecarboxamide)] | 100 to 999 |
| CC(C)(C)O[C@@H]1C[C@@H](C(=O)Nc2ccc(-c3cnc(-c4ccc(NC(=O)[C@@H]5C[C@@H](OC(C)(C)C)CN5C(=O)CC5CC5)cc4)o3)cc2)N(C(=O)CC2CC2)C1 [XY-61, (2S,4R,2′S,4′R)-N,N′-(1,3-oxazole-2,5-diyldi-4,1-phenylene)bis(4-tert-butoxy-1-(cyclopropylacetyl)-2-pyrrolidinecarboxamide)] | 100 to 999 |
| CC(C)(C)O[C@@H]1C[C@@H](C(=O)Nc2ccc(-c3cnc(-c4ccc(NC(=O)[C@@H]5C[C@@H](OC(C)(C)C)CN5C(=O)[C@H]5CCCO5)cc4)o3)cc2)N(C(=O)[C@H]2CCCO2)C1 [XY-68, (2S,4R,2′S,4′R)-N,N′-(1,3-oxazole-2,5-diyldi-4,1-phenylene)bis(4-tert-butoxy-1-((2R)-tetrahydro-2-furanylcarbonyl)-2-pyrrolidinecarboxamide)] | 100 to 999 |
| CC(C)(C)O[C@@H]1C[C@@H](C(=O)Nc2ccc(-c3cnc(-c4ccc(NC(=O)[C@@H]5C[C@@H](OC(C)(C)C)CN5C(=O)c5cccs5)cc4)o3)cc2)N(C(=O)c2cccs2)C1 [XY-76, (2S,4R,2′S,4′R)-N,N′-(1,3-oxazole-2,5-diyldi-4,1-phenylene)bis(4-tert-butoxy-1-(2-thienylcarbonyl)-2-pyrrolidinecarboxamide)] | 1000 to 10000 |
| CC(C)(CCl)C(=O)N1CCC[C@H]1C(=O)Nc1ccc(-c2cnc(-c3ccc(NC(=O)[C@@H]4CCCN4C(=O)C(C)(C)CCl)cc3)o2)cc1 [XY-17, (2S,2′S)-N,N′-(1,3-oxazole-2,5-diyldi-4,1-phenylene)bis(1-(3-chloro-2,2-dimethylpropanoyl)-2-pyrrolidinecarboxamide)] | 100 to 999 |
| CC(C)(C)O[C@H]1CN[C@H](C(=O)Nc2ccc(-c3cnc(-c4ccc(NC(=O)[C@@H]5C[C@@H](OC(C)(C)C)CN5)cc4)o3)cc2)C1 [XY-60, (2S,4R,2′S,4′R)-N,N′-(1,3-oxazole-2,5-diyldi-4,1-phenylene)bis(4-tert-butoxy-2-pyrrolidinecarboxamide)] | 1000 to 10000 |

same assay, conditions: Hepatitis C virus, HCV 1b genotype replicon; read-out: EC50 1b

| SMILES | EC50 [nM] |
| --- | --- |
| CCOc1ccccc1C(=O)N1CCC[C@H]1C(=O)Nc1ccc(-c2nnc(-c3ccc(NC(=O)[C@@H]4CCCN4C(=O)c4ccccc4OCC)cc3)o2)cc1 [RK-8, (2S,2′S)-N,N′-(1,3,4-oxadiazole-2,5-diyldi-4,1-phenylene)bis(1-(2-ethoxybenzoyl)-2-pyrrolidinecarboxamide)] | 1850 |
| CO[C@H](C(=O)N1CCC[C@H]1C(=O)Nc1ccc(-c2cnc(-c3ccc(NC(=O)[C@@H]4CCCN4C(=O)[C@@H](OC)c4ccccc4)cc3)o2)cc1)c1ccccc1 [JG-19, (2S,2′S)-N,N′-(1,3-oxazole-2,5-diyldi-4,1-phenylene)bis(1-((2S)-2-methoxy-2-phenylacetyl)-2-pyrrolidinecarboxamide)] | 9 |
